The text below walks through data of publication PMC7644710, “Structural insights into the mechanism of rhodopsin phosphodiesterase” (Nature Communications, 2020).

The target of data set [1] is T1, Rh-PDE-TMD (SrRh-PDE transmembrane domain) (Salpingoeca rosetta, UniProt F2TZN0).
T1 construct: gene PTSG_02023; rhodopsin / transmembrane domain (TM0-7), residues 33-316; C-terminal GFP-His8 cut by TEV; HEK293S GnTI-; dimer
Briefly: X-ray crystallography, […] Å. The class given is binding. The note with it: covalent; Schiff base at Lys296 in TM7; LCP crystals, pH 5.0.

The target in the next data set is T2, Rh-PDE wt (full-length) (Salpingoeca rosetta, UniProt F2TZN0).
T2 construct: gene PTSG_02023; full-length, RHO 1D4 tag, ~75 kDa; human codon-optimised gene expressed in HEK293T; dimer
Briefly: HPLC hydrolysis assay, HEK293T homogenate. The class given is biochemical. To be noted: 100 μM cGMP, dark or light (Y52 filter), 3 mM MgCl2, pH 6.5, room temperature.

Data set [2] deals with the molecule itself. In words: SEC-MALS; SEC-MALLS, Superdex 200 Increase 10/300, 4 °C, 20 mM Tris-HCl pH 8.0, 150 mM NaCl, 0.01% LMNG; three-detector method. On the technique in general: In gel filtration, larger molecules generally elute earlier.
Data set [3] deals with the molecule itself. Briefly: high-speed atomic force microscopy (HS-AFM); purified full-length Rh-PDE reconstituted in an asolectin lipid bilayer, on APTES-treated mica, buffer without detergent, room temperature, tapping mode.

As a reminder, the stoichiometry N is a count of units in the complex or per binding partner.

With `CC1=C(/C=C/C(C)=C/C=C/C(C)=C/C=O)C(C)(C)CCC1` [all-trans retinal], the “X-ray crystallography, 2.6 Å” value in data set [1] is “canonical rhodopsin-like topology with covalently linked retinal at Lys296 in TM7”.

For the molecule `Nc1nc2c(ncn2[C@@H]2O[C@@H]3COP(=O)(O)O[C@H]3[C@H]2O)c(=O)[nH]1` [cGMP], the “HPLC hydrolysis assay, HEK293T homogenate” value at Rh-PDE wt (full-length) was “The wild-type Rh-PDE showed three and twofold light-induced productions of cAMP and cGMP, respectively”.

B1: Rhodopsin phosphodiesterase transmembrane domain (Rh-PDE–TMD, residues 33–316) (domain or fragment, Salpingoeca rosetta, UniProt F2TZN0 33-316, looked up)
chain: GRGKRRAKTRNIAIASTKEVQWQGIFMIIVWLCVMGSLIFFANPEASRRVFAKFSHLQSFYGATSVAFAFATGLDILAYVNAVSDEKRVLSGILAYVDGVACISYLSMATLNLYFLVDSTQGNPVWLMRYAEWIITCPTLLYWCGLASRADRSSVSDIATADALLLAGGALSSILPSWPAFFVFAGSFATYIYVMLHMWGMFGKAMQPDFQPPPPLPRHALHLLRCEIVMSWSIFPLVEFLRRQGYIDFQVGEAMNCVADYAAKVGLAMIMVNCNLEQINALRV
modifications: covalently linked retinal at Lys296
notes: Rhodopsin phosphodiesterase (Rh-PDE) of Salpingoeca rosetta, transmembrane domain, residues 33-316; gene synthesised with human codon optimisation; TEV site between the protein and the GFP-His8 tag; also called SrRh-PDE–TMD; source: HEK293S GnTI- cells (pEG BacMam), purified (TALON, TEV cleavage, SEC) in LMNG/CHS; not shown: GFP-His8, C-terminal, cleaved
Consider B1, for which the “stoichiometry N” value in data set [2] stood at 2.

B2: Full-length rhodopsin phosphodiesterase from Salpingoeca rosetta (enzyme, UniProt F2TZN0 1-704, looked up)
chain: MGRKNAANSSMLQEASMNNYSMTSAASGASSSGRGKRRAKTRNIAIASTKEVQWQGIFMIIVWLCVMGSLIFFANPEASRRVFAKFSHLQSFYGATSVAFAFATGLDILAYVNAVSDEKRVLSGILAYVDGVACISYLSMATLNLYFLVDSTQGNPVWLMRYAEWIITCPTLLYWCGLASRADRSSVSDIATADALLLAGGALSSILPSWPAFFVFAGSFATYIYVMLHMWGMFGKAMQPDFQPPPPLPRHALHLLRCEIVMSWSIFPLVEFLRRQGYIDFQVGEAMNCVADYAAKVGLAMIMVNCNLEQINALRVQQMHSALTGMLKVMRKTNLSSSRMAQLDGVDDDVKSWIMNEFSGSTDGKGGDDAKAQQRARGRKGHSAAMDAEKLAASSLFTWDFDALDKSDEDLTAVCVRVFQELHVIEQFNIDEKKLRKWLQKVRTQYNKNPFHNWRHAVMVLHTTYLLLTSVATEFITEVELLAMLIAALSHDLDHNGLTNAFHINSRSELALVYNDQSVLENHHSHLAFEILLEKGCNVVENLDEDEFKRLRAVIINCILNTDMATHHTKLSKMEEVNRLGGFINLAENNDQRLFVLAVLLHTADLHNPIKPFESNKRWSARLQKEFNNQVELEAKMNLPSLPFMRGNDEESLAKGEIGFINFVVKPWHQQLSQAFPKLDFLLDTIDANLAEWKAIAESYRQMH
notes: Rhodopsin phosphodiesterase (Rh-PDE) of Salpingoeca rosetta, full length; also called full-length Rh-PDE; Rh-PDE (full); source: purified as the TMD constructs (HEK293S GnTI- cells) but in DDM/CHS; reconstituted in an asolectin lipid bilayer; not shown: GFP-His8, C-terminal, cleaved
On to B2, for which the “stoichiometry N” value in data set [3] was 2.
